Test results published in PubChem BioAssay (NCI).
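Growth conditions: 96-well plates. Treatment: test compound, 48 hours, 5 concentrations. Analysis: linear interpolation between bracketing concentrations; unreached endpoints set to highest concentration. GI50 is the concentration that inhibits growth by half. At the TGI there is no net growth.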

What was measured:
Assay in all cases: NCI tumour cell line growth inhibition, 48 h
[1] = test system: 786-0 renal
[2] = test system: A498 renal
[3] = test system: A549 NSCLC
[4] = test system: ACHN renal
[5] = test system: BT-549 breast
[6] = test system: CAKI-1 renal
[7] = test system: CCRF-CEM leukemia
[8] = test system: COLO 205 colon
[9] = test system: DLD-1 colon
[10] = test system: DMS 114 small cell lung
[11] = test system: DMS 273 small cell lung
[12] = test system: DU-145 prostate
[13] = test system: EKVX NSCLC
[14] = test system: HCC-2998 colon
[15] = test system: HCT-116 colon
[16] = test system: HCT-15 colon
[17] = test system: HL-60(TB) leukemia
[18] = test system: HOP-62 NSCLC
[19] = test system: HOP-92 NSCLC
[20] = test system: HS 578T breast
[21] = test system: HT29 colon
[22] = test system: IGROV1 ovarian
[23] = test system: K-562 leukemia
[24] = test system: KM12 colon
[25] = test system: KM20L2 colon
[26] = test system: LOX IMVI melanoma
[27] = test system: LXFL 529 NSCLC
[28] = test system: M14 melanoma
[29] = test system: M19-MEL melanoma
[30] = test system: MALME-3M melanoma
[31] = test system: MCF7 breast
[32] = test system: MDA-MB-231 breast
[33] = test system: MDA-MB-435
[34] = test system: MDA-N
[35] = test system: MOLT-4 leukemia
[36] = test system: NCI-H226 lung
[37] = test system: NCI-H23 lung
[38] = test system: NCI-H460 lung
[39] = test system: NCI-H522 lung
[40] = test system: NCI/ADR-RES ovarian
[41] = test system: OVCAR-3 ovarian
[42] = test system: OVCAR-4 ovarian
[43] = test system: OVCAR-5 ovarian
[44] = test system: OVCAR-8 ovarian
[45] = test system: PC-3 prostate
[46] = test system: RPMI-8226 leukemia
[47] = test system: RXF 393 renal
[48] = test system: SF-268 CNS
[49] = test system: SF-295 CNS
[50] = test system: SF-539 CNS
[51] = test system: SK-MEL-2 melanoma
[52] = test system: SK-MEL-28 melanoma
[53] = test system: SK-MEL-5 melanoma
[54] = test system: SK-OV-3 ovarian
[55] = test system: SN12C renal
[56] = test system: SNB-19 CNS
[57] = test system: SNB-75 CNS
[58] = test system: SNB-78 CNS
[59] = test system: SR leukemia
[60] = test system: SW-620 colon
[61] = test system: T-47D breast
[62] = test system: TK-10 renal
[63] = test system: U251 CNS
[64] = test system: UACC-257 melanoma
[65] = test system: UACC-62 melanoma
[66] = test system: UO-31 renal
[67] = test system: XF 498 CNS
[68] = test system: HOP-18 NSCLC

COC(=O)N/N=C(/CC1(O)C(=O)Nc2ccc([N+](=O)[O-])cc21)c1ccccc1 (stereo not drawn)
TGI [1]: > 54.4 µM
TGI [2]: 25.8 µM
TGI [3]: > 100 µM
TGI [4]: > 72.2 µM
TGI [5]: 92.3 µM
TGI [6]: > 100 µM
TGI [7]: > 76.6 µM
TGI [8]: > 82.5 µM
TGI [9]: > 100 µM
TGI [10]: > 100 µM
TGI [11]: > 100 µM
TGI [12]: > 100 µM
TGI [13]: > 93.4 µM
TGI [14]: > 100 µM
TGI [15]: > 58.6 µM
TGI [16]: > 70.6 µM
TGI [17]: 58.8 µM
TGI [18]: > 90.2 µM
TGI [19]: > 100 µM
TGI [20]: 73.3 µM
TGI [21]: > 79.4 µM
TGI [22]: > 73.6 µM
TGI [23]: > 87.2 µM
TGI [24]: > 63.7 µM
TGI [25]: > 100 µM
TGI [26]: 36.1 µM
TGI [27]: > 100 µM
TGI [28]: > 64.8 µM
TGI [29]: > 100 µM
TGI [30]: > 75.4 µM
TGI [31]: 5.61 µM
TGI [32]: 44 µM
TGI [33]: 57.3 µM
TGI [34]: 94.4 µM
TGI [35]: > 66.7 µM
TGI [36]: 98.3 µM
TGI [37]: > 60.1 µM
TGI [38]: > 100 µM
TGI [39]: > 75.9 µM
TGI [40]: 55.7 µM
TGI [41]: > 74.6 µM
TGI [42]: > 84.7 µM
TGI [43]: > 100 µM
TGI [44]: > 68.5 µM
TGI [45]: > 100 µM
TGI [46]: 97.2 µM
TGI [47]: 51.4 µM
TGI [48]: > 100 µM
TGI [49]: 39.2 µM
TGI [50]: > 100 µM
TGI [51]: > 72.9 µM
TGI [52]: > 70.9 µM
TGI [53]: > 60.9 µM
TGI [54]: > 100 µM
TGI [55]: > 100 µM
TGI [56]: > 100 µM
TGI [57]: 54.9 µM
TGI [58]: 50.6 µM
TGI [59]: > 68.3 µM
TGI [60]: > 69.4 µM
TGI [61]: > 100 µM
TGI [62]: 57.6 µM
TGI [63]: 76.9 µM
TGI [64]: > 95.6 µM
TGI [65]: > 54.7 µM
TGI [66]: 91.6 µM
TGI [67]: 46.5 µM

Cc1cc2c(cc1O)[nH]c1cc3c(cc12)C=CC(C)(C)O3
GI50 [3]: 6.42 µM
TGI [3]: 21.6 µM
GI50 [4]: 9.3 µM
TGI [4]: > 25 µM
GI50 [7]: 19.8 µM
TGI [7]: > 25 µM
TGI [8]: > 25 µM
GI50 [9]: 12.7 µM
TGI [9]: > 25 µM
TGI [10]: > 25 µM
GI50 [11]: 5.04 µM
TGI [11]: 12.2 µM
GI50 [14]: 6.73 µM
TGI [14]: 14.5 µM
GI50 [15]: 12.8 µM
TGI [15]: > 25 µM
GI50 [16]: 8.73 µM
TGI [16]: > 25 µM
GI50 [17]: 6.98 µM
TGI [17]: > 25 µM
GI50 [18]: 7.95 µM
TGI [18]: 24.4 µM
GI50 [19]: 9.85 µM
TGI [19]: > 25 µM
GI50 [21]: 11.8 µM
TGI [21]: > 25 µM
GI50 [22]: 22.9 µM
TGI [22]: > 25 µM
TGI [23]: > 25 µM
GI50 [24]: 5.26 µM
TGI [24]: 11.9 µM
GI50 [25]: 9.35 µM
TGI [25]: > 25 µM
GI50 [26]: 3.95 µM
TGI [26]: 7.41 µM
GI50 [27]: 9.31 µM
TGI [27]: > 25 µM
GI50 [28]: 6.07 µM
TGI [28]: 16.9 µM
GI50 [29]: 19.6 µM
TGI [29]: > 25 µM
GI50 [30]: 10.1 µM
TGI [30]: > 25 µM
GI50 [35]: 0.00323 µM
TGI [35]: > 25 µM
GI50 [36]: 18.9 µM
TGI [36]: > 25 µM
GI50 [38]: 5.36 µM
TGI [38]: 12.4 µM
GI50 [39]: 8.39 µM
TGI [39]: > 25 µM
TGI [41]: 22.6 µM
TGI [42]: > 25 µM
TGI [43]: > 25 µM
TGI [44]: 9.41 µM
TGI [46]: > 25 µM
GI50 [47]: 4.93 µM
TGI [47]: 11.5 µM
GI50 [48]: 6.69 µM
TGI [48]: > 25 µM
GI50 [50]: 4.08 µM
TGI [50]: 9.96 µM
TGI [51]: > 25 µM
GI50 [52]: 14.5 µM
TGI [52]: > 25 µM
GI50 [53]: 17.5 µM
TGI [53]: > 25 µM
TGI [54]: > 25 µM
GI50 [55]: 6.32 µM
TGI [55]: 18.9 µM
TGI [56]: > 25 µM
TGI [58]: > 25 µM
GI50 [59]: 6.39 µM
TGI [59]: 24.9 µM
GI50 [60]: 7.64 µM
TGI [60]: > 25 µM
TGI [62]: > 25 µM
GI50 [63]: 6.06 µM
TGI [63]: 14.3 µM
GI50 [65]: 6.75 µM
TGI [65]: > 25 µM
GI50 [66]: 11.4 µM
TGI [66]: > 25 µM
TGI [67]: > 25 µM

CC(=O)O[C@H]1CC[C@@]2(C)C(=CC[C@@H]3C2CC[C@]2(C)Nc4c(cnn4-c4ccccc4)CC32)C1 (stereo partly drawn)
TGI [1]: 36.6 µM
TGI [2]: 51.9 µM
TGI [3]: > 100 µM
TGI [4]: > 100 µM
TGI [6]: > 100 µM
TGI [7]: > 100 µM
TGI [9]: > 100 µM
TGI [10]: > 100 µM
TGI [11]: 18.4 µM
TGI [13]: > 100 µM
TGI [14]: 70.8 µM
TGI [15]: > 100 µM
TGI [16]: > 100 µM
TGI [17]: > 100 µM
TGI [18]: 63.9 µM
TGI [21]: > 100 µM
TGI [22]: > 100 µM
TGI [24]: 69.8 µM
TGI [25]: > 100 µM
TGI [27]: > 100 µM
TGI [28]: > 100 µM
TGI [29]: > 100 µM
TGI [30]: > 100 µM
TGI [36]: > 100 µM
TGI [37]: > 100 µM
TGI [38]: > 100 µM
TGI [41]: > 100 µM
TGI [42]: 66.9 µM
TGI [43]: > 100 µM
TGI [44]: > 100 µM
TGI [46]: 6.62 µM
TGI [47]: 42.2 µM
TGI [49]: 8.52 µM
TGI [50]: 9.12 µM
TGI [51]: > 100 µM
TGI [52]: > 100 µM
TGI [53]: > 100 µM
TGI [54]: > 100 µM
TGI [57]: 30.8 µM
TGI [58]: > 100 µM
TGI [60]: > 100 µM
TGI [62]: > 100 µM
TGI [63]: > 100 µM
TGI [64]: > 100 µM
TGI [65]: > 100 µM
TGI [66]: 84 µM
TGI [67]: > 100 µM

COc1cccc2c1C(=O)c1c(O)c3c(c(O)c1C2=O)C[C@@](O)(C(=O)CO)C[C@@H]3OC1CC(N(C)C)C(O)C(C)O1 (stereo partly drawn)
TGI [1]: 1.51 µM
TGI [2]: < 0.0195 µM
TGI [3]: 0.785 µM
TGI [4]: 0.0966 µM
TGI [5]: 0.556 µM
TGI [6]: 0.0733 µM
TGI [7]: 7.59 µM
TGI [8]: 0.0186 µM
TGI [9]: 0.176 µM
TGI [10]: 0.204 µM
TGI [11]: 0.158 µM
TGI [12]: 0.803 µM
TGI [13]: 0.413 µM
TGI [14]: 0.258 µM
TGI [15]: 12.3 µM
TGI [16]: 0.765 µM
TGI [17]: 0.0206 µM
TGI [68]: 2.95 µM
TGI [18]: 0.272 µM
TGI [19]: 0.312 µM
TGI [20]: 0.0344 µM
TGI [21]: 1.82 µM
TGI [22]: 0.183 µM
TGI [23]: 9.41 µM
TGI [24]: 0.338 µM
TGI [25]: 0.591 µM
TGI [26]: 0.0102 µM
TGI [27]: 1.6 µM
TGI [28]: 0.104 µM
TGI [30]: 0.0576 µM
TGI [32]: 0.615 µM
TGI [33]: 0.165 µM
TGI [34]: 0.0833 µM
TGI [35]: 0.299 µM
TGI [36]: 0.0814 µM
TGI [37]: 0.0946 µM
TGI [38]: 0.0167 µM
TGI [39]: 0.0922 µM
TGI [41]: 0.858 µM
TGI [42]: 0.266 µM
TGI [43]: 0.352 µM
TGI [44]: 1.52 µM
TGI [45]: 0.102 µM
TGI [46]: 0.825 µM
TGI [47]: 0.0827 µM
TGI [48]: 0.36 µM
TGI [49]: 0.173 µM
TGI [50]: 0.121 µM
TGI [51]: 0.0885 µM
TGI [52]: 0.168 µM
TGI [53]: 0.0455 µM
TGI [54]: 1.76 µM
TGI [55]: 1.14 µM
TGI [56]: 0.649 µM
TGI [57]: 0.138 µM
TGI [58]: 0.645 µM
TGI [59]: 0.0188 µM
TGI [60]: 1.38 µM
TGI [61]: 0.0969 µM
TGI [62]: 2.28 µM
TGI [63]: 2.75 µM
TGI [64]: 0.153 µM
TGI [65]: 0.0261 µM
TGI [66]: 0.427 µM
TGI [67]: 0.0553 µM
